This passage reports Emax and EC50 results from patent publication US20250230155A1 (Vanderbilt University, priority 2021, published 2025).

This test has as its target T1, human mAChR M4 (Homo sapiens, UniProt P08173).
T1 construct: expressed in transfected cells
T1 sequence (P08173 1-479): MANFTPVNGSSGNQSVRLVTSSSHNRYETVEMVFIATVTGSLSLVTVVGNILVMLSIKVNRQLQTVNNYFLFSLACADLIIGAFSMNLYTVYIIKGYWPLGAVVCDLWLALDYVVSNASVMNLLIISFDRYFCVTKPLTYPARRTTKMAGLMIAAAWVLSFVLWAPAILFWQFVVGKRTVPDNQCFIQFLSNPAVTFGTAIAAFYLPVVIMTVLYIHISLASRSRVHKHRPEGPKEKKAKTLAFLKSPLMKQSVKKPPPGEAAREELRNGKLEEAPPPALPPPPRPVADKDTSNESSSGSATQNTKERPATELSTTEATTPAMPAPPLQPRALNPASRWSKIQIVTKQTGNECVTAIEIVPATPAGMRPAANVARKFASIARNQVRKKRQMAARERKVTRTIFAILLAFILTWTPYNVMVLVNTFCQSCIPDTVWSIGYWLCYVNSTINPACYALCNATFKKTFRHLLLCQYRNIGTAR
Briefly: mAChR M4 cell-based functional assay (calcium mobilization, CHO-K1 hM4-Gqi5 cells). Conditions: for Emax at 30 µM: CHO-K1, % ACh maximum at 30 μM, human M4; for EC50: positive allosteric modulator activity, increase in the EC20 acetylcholine response, CHO-K1 hM4-Gqi5 cells, read-out: Human M4 EC50. In short, it runs like this:
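Fluorescent calcium read-out (Fluo-4 AM, FDSS, 1 Hz) in hM4-Gqi5 CHO-K1 cells, 11-point 1:3 compound series. Agonism scored on compound addition, PAM activity as increase of the 144 s EC20 acetylcholine response, antagonism as decrease of the 230 s EC80 response; four-parameter logistic fits give EC50 and Emax.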
(Calcium flux is commonly read through the fluorescence of an indicator in the cells.)

One may read the Emax as the size of the effect at its maximum, as opposed to the concentration needed. A word on the EC50: it is the concentration giving half of the maximal effect.

Take `[2H]C1([2H])Cc2ncc(Nc3ccccc3F)cc2C([2H])([2H])N1c1nnc(C#N)cc1C` [Example 611, 6-(3-((2-fluorophenyl)amino)-7,8-dihydro-1,6-naphthyridin-6(5H)-yl-5,5,7,7-d4)-5-methylpyridazine-3-carbonitrile]: the Emax at 30 µM turned out to be 86% and the concentration giving a half-maximal response (EC50) turned out to be 8 nM.
The like results for `[2H]C1([2H])Cc2ncc(Nc3ccccc3F)cc2C([2H])([2H])N1c1ncc(C#N)cc1C` [Example 612] were, in that order, 91% and 24 nM.
For the compound `Cc1c(C#N)nnc(N2CCc3ncc(Nc4ccncc4F)cc3C2)c1C` [Example 613, 6-(3-((3-fluoropyridin-4-yl)amino)-7,8-dihydro-1,6-naphthyridin-6(5H)-yl)-4,5-dimethylpyridazine-3-carbonitrile], the Emax at 30 µM was 97% and the 50% effective concentration (EC50) was 3 nM.
In the case of `Cc1cc(Nc2cnc3c(c2)CN(c2nnc(C#N)c(C)c2C)CC3)c(F)cn1` [Example 614, 6-(3-((5-fluoro-2-methylpyridin-4-yl)amino)-7,8-dihydro-1,6-naphthyridin-6(5H)-yl)-4,5-dimethylpyridazine-3-carbonitrile], the maximum response (Emax) at 30 µM was found to be 92% and the EC50 was found to be 12 nM.
In the case of `Cc1cc(Nc2cnc3c(c2)CN(c2nnc(C#N)cc2C)CC3)c(F)cn1` [Example 615, 6-(3-((5-fluoro-2-methylpyridin-4-yl)amino)-7,8-dihydro-1,6-naphthyridin-6(5H)-yl)-5-methylpyridazine-3-carbonitrile], the maximal response (Emax) at 30 µM was found to be 89% and the EC50 turned out to be 11 nM.
With `Cc1cc(Nc2cnc3c(c2)CN(c2ncc(C#N)cc2C)CC3)c(F)cn1` [Example 616, 6-(3-((5-fluoro-2-methylpyridin-4-yl)amino)-7,8-dihydro-1,6-naphthyridin-6(5H)-yl)-5-methylnicotinonitrile], the Emax at 30 µM was determined as 95% and the EC50 came to 4 nM.
For `[2H]C1([2H])Cc2ncc(-c3ccnn3C)cc2C([2H])([2H])N1c1nnc(C#N)cc1C` [Example 617, 5-methyl-6-(3-(1-methyl-1H-pyrazol-5-yl)-7,8-dihydro-1,6-naphthyridin-6(5H)-yl-5,5,7,7-d4)pyridazine-3-carbonitrile] the same measures were 88% and 2460 nM.
Take `Cc1cnccc1Nc1cnc2c(c1)CN(c1nnc(C#N)c(C)c1C)CC2` [Example 618, 4,5-dimethyl-6-(3-((3-methylpyridin-4-yl)amino)-7,8-dihydro-1,6-naphthyridin-6(5)-yl)pyridazine-3-carbonitrile]: the Emax at 30 µM worked out at 74% and the EC50 was determined as 391 nM.
The like results for `Cc1cnccc1Nc1cnc2c(c1)CN(c1nnc(C#N)cc1C)CC2` [Example 619, 5-methyl-6-(3-((3-methylpyridin-4-yl)amino)-7,8-dihydro-1,6-naphthyridin-6(5H)-yl)pyridazine-3-carbonitrile] were, in that order, 86% and 1020 nM.
In the case of `Cc1cnccc1Nc1cnc2c(c1)CN(c1ncc(C#N)cc1C)CC2` [Example 620, 5-methyl-6-(3-((3-methylpyridin-4-yl)amino)-7,8-dihydro-1,6-naphthyridin-6(5H)-yl)nicotinonitrile], the Emax at 30 µM stood at 96% and the EC50 came out at 72 nM.
In the case of `[2H]C1([2H])Cc2ncc(-c3c(C)noc3C)cc2C([2H])([2H])N1c1nnc(C#N)cc1C` [Example 621, 6-(3-(3,5-dimethylisoxazol-4-yl)-7,8-dihydro-1,6-naphthyridin-6(5H)-yl-5,5,7,7-d4)-5-methylpyridazine-3-carbonitrile], the Emax at 30 µM came to 85% and the EC50 stood at 318 nM.
`Cc1c(C#N)nnc(N2CCc3ncc(Nc4ccccc4Cl)cc3C2)c1C` [compound 39, 6-[3-(2-chloroanilino)-7,8-dihydro-5H-1,6-naphthyridin-6-yl]-4,5-dimethyl-pyridazine-3-carbonitrile]: the maximum response (Emax) at 30 µM is 73% and the EC50 worked out at 239 nM.
